Like-named read-outs stand apart in the source and are kept apart here.

In series [1] the test system is platelet aggregation by collagen. The series is described as follows: inhibiting action on platelet aggregation by collagen (COLLAGEN TEST), plasma of orally treated rats. The format is in vivo, Wistar rats. Conditions: Rattus norvegicus, read-out: Percentage inhibition of platelet aggregation (collagen test). As for the experimental part: (§1) A sample of blood is taken from the jugular vein of Wistar rats, which have previously been treated with the compound to be tested. From this blood, which is citrate-treated and centrifuged, there is reconstituted a plasma containing 600,000±20,000 platelets per mm^3, which is employed in all the aggregation measurements.
(§2) 0.4 ml. of plasma is treated in a siliconised tube provided with a bar magnet which is also siliconised. The tube is introduced into an aggregometer connected to an apparatus with which variations in optical density can be recorded. When the light transmission has reached a stable value, 0.5 ml. of a solution containing […] of ADP (adenosine diphosphate)is introduced into the tube.
(§3) Platelet aggregation then causes an increase in light transmission, followed by a reduction in light transmission due to the subsequent disaggregation stage.
(§4) The maximum variation in optical density thus determined relative to that of a plasma free of platelets characterises the intensity of aggregation.
(§5) The measurements are carried out during the 2 hours which follow the taking of the blood sample, this sample being taken 3 hours after treatment with the derivative to be tested.
The ADP solution is replaced by a solution of collagen (extracted from cattle tendons).
(§6) Groups of 20 rats were used. Each group received a single dose of the compound to be tested, administered orally, the same compound being administered at different doses ranging from 5 mg./kg. to 100 mg./kg.
(§7) The results obtained are given in the following Tables II and III, which show the percentage inhibition of platelet aggregation obtained relative to the control experiment, 3 hours after treatment with the compound to be tested.

Another series relates to experimental thrombosis. Nature of the series: anti-thrombosis activity, experimental thrombosis caused by extracorporal circulation (Umetsu and Sonoi). The format is in vivo, rats. Particulars: for Average weight of the thrombi: control (5% gum arabic) 30.41. As for the experimental part:
This activity was studied by the experimental thrombosis method caused by extracorporal circulation, described by Umetsu and Sonoi (Thrombos. Haemost., 39, […]).
The left jugular vein and the right external carotid are exposed in rats anaesthetised by an intraperitoneal injection of pentobarbital. A shunt is provided which consists of a central catheter and two lateral catheters. A natural white silk thread is introduced into the central part and the circulation is restarted for 20 minutes. After stopping the circulation by clamping, the thread is gently withdrawn and weighed immediately.
Treatment was carried out for 48 hours, 24 hours and 2 hours before the start of the blood circulation in shunt.
The test compounds were administered orally to different groups of animals in the form of a suspension in 10 ml. of 5% gum arabic/kg., the doses used being 12.5 mg./kg., 25 mg./kg., 50 mg./kg., 100 mg./kg. and 200 mg./kg.

Series [2] deals with platelet aggregation by ADP. The series is described as follows: inhibiting action on platelet aggregation by ADP (ADP TEST), plasma of orally treated rats. The format is in vivo, Wistar rats. Conditions: Rattus norvegicus; for inhibition at 5 mg/kg / inhibition at 12.5 mg/kg / inhibition at 25 mg/kg / inhibition at 50 mg/kg / inhibition at 100 mg/kg: read-out: Percentage inhibition of platelet aggregation (ADP test). How it is done: as §1, §2, §3, §4, §5, §6, §7

Series [3] deals with platelet aggregation induced by ADP. Nature of the series: kinetic study of platelet aggregation induced by ADP (Born's nephelometric method, Bryston aggregometer), intraperitoneal. The format is in vivo. Particulars: rats. How it is done: A further experiment was carried out, relating to the kinetic study of the compounds of the present invention.
The blood sample is taken 10 minutes and 60 minutes after this administration and is centrifuged to obtain a plasma enriched in platelets.
The platelet aggregation in the plasma, induced by ADP is measured in a Bryston aggregometer, using Born's nephelometric method.

The nature of the next series: in vivo. Particulars: mouse, iv. The text has this: This study was concerned with the acute, chronic, sub-chronic and delayed toxicities.
The mark [4] stands for this setting: 12.5 mg/kg oral, 48, 24 and 2 hours before.
The mark [5] stands for this setting: 25 mg/kg oral, 48, 24 and 2 hours before.
[6] abbreviates: 50 mg/kg oral, 48, 24 and 2 hours before.
Setting [7] is: 100 mg/kg oral, 48, 24 and 2 hours before.
[8] abbreviates: 10 minutes after 100 mg/kg intraperitoneal in propylene glycol.
[9] abbreviates: 60 minutes after 100 mg/kg intraperitoneal in propylene glycol.
Where [10] appears, read: 5 mg/kg oral, single dose, 3 hours after treatment, relative to control.
[11] abbreviates: 12.5 mg/kg oral, single dose, 3 hours after treatment, relative to control.
The mark [12] stands for this setting: 25 mg/kg oral, single dose, 3 hours after treatment, relative to control.
[13] abbreviates: 50 mg/kg oral, single dose, 3 hours after treatment, relative to control.
[14] abbreviates: 100 mg/kg oral, single dose, 3 hours after treatment, relative to control.

For orientation: inhibition means how much of the control response was suppressed. For orientation: LD50 means the dose expected to kill half of the subjects tested. A lower LD50 goes with greater toxicity. As for `O=C1C=C2CN(Cc3ccccc3Cl)CCC2S1` (stereo not drawn) [Derivative 1, 5-(o-Chlorobenzyl)-5,6,7,7a-tetrahydro-4H-thieno-[3,2-c]pyridin-2-one], the inhibition at 5 mg/kg in series [1] (po, 3 h) was determined as 16.8%; in series [2] (po, 3 h), 51%. Also, the inhibition at 12.5 mg/kg in series [1] (po, 3 h) came to 46.8%; in series [2] (po, 3 h) it was 83.6%. The inhibition at 25 mg/kg in series [1] (po, 3 h) was found to be 86.7%; in series [2] (po, 3 h), 83.7%. Also, the inhibition at 50 mg/kg in series [1] (po, 3 h) was found to be 89.6%; in series [2] (po, 3 h), 84%. Besides, the inhibition at 100 mg/kg in series [1] (po, 3 h) was determined as 89.8%; in series [2] (po, 3 h) it was 84.1%. Besides, the “Average weight of the thrombi” value with experimental thrombosis (setting [4]) worked out at 27.45 mg; with experimental thrombosis (setting [5]), 12.21 mg; with experimental thrombosis (setting [6]), 6.01 mg; in the series with experimental thrombosis (setting [7]), 4.76 mg. Further, the “percentage inhibition as a function of time (platelet aggregation, ADP)” value in series [3] (setting [8]) came out at 42%; in series [3] (setting [9]) it was 97%. Also, the LD50 at 24 h in “in vivo” was found to be 113 mg/kg.
On to `Clc1ccccc1CN1CCc2sccc2C1` [Reference compound A, 5-(2-chlorobenzyl)-4,5,6,7-tetrahydrothieno[3,2-c]pyridine, reference compound], for which the inhibition at 5 mg/kg in series [1] (setting [10]) and in series [2] (setting [10]) was 0% in each case. Also, the inhibition at 12.5 mg/kg in series [1] (setting [11]) and in series [2] (setting [11]) was 0% in each case. Besides, the results for the inhibition at 25 mg/kg in series [1] (setting [12]) and in series [2] (setting [12]) were 40.9% and 0%, respectively. In addition, the inhibition at 50 mg/kg in series [1] (setting [13]) is 46.8%; in series [2] (setting [13]), 34.6%. Also, the inhibition at 100 mg/kg came out at 80.1% in series [1] (setting [14]) and 63.2% in series [2] (setting [14]). The “Average weight of the thrombi” value turned out to be 30.45 mg with experimental thrombosis (setting [4]); 30.09 mg in the series with experimental thrombosis (setting [5]); 28.86 mg in the series on experimental thrombosis (setting [6]); 23.04 mg in the series with experimental thrombosis (setting [7]); 23.13 mg in the series on experimental thrombosis (200 mg/kg oral, 48, 24 and 2 hours before). Besides, the anti-thrombosis action entry in the series with experimental thrombosis (even at high doses) was “no anti-thrombosis action whatsoever”. For the same compound, the minimal effective dose in series [2] (3 h, oral, rats, stated for the aggregation tests (ADP and collagen), read-out: dose at which significant (or similar) platelet aggregation inhibiting activity manifests itself) was found to be 100 mg/kg. The figures for the “percentage inhibition as a function of time (platelet aggregation, ADP)” value in series [3] (setting [8]) and in series [3] (setting [9]) were 22% and 39%, respectively.

These data come from patent publication US4515951A, “Preparation of 5,6,7,7a-tetrahydro-4H-thieno[3,2-c]pyridin-2-one compounds” (Sanofi, priority 1980, dated 1985).
